# Assay results taken from US20230085307A1, “PYRIDAZINONE COMPOUND AND HERBICIDE” (NISSAN CHEMICAL CORPORATION, priority 2019, published 2023).
# Key:
# velvetleaf = assay: Test Example 4: herbicidal effect by soil treatment (Table 19, symbol M); type: in vivo, velvetleaf (Abutilon theophrasti); settings: amount of applied herbicide 320 g/ha
# Procedure, shortened: (§1)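 Three weeks of greenhouse growth at 25° C. to 30° C. followed a uniform surface spray of water-diluted emulsion at a predetermined herbicide amount. Seeds had been sown beforehand under about 1.5 cm of sterilized diluvial soil. Grading followed criteria set out in an earlier test.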
# wild oat [1] = assay: Test Example 4: herbicidal effect by soil treatment (Table 19, symbol I); type: in vivo, wild oat (Avena fatua); settings: amount of applied herbicide 320 g/ha
# Procedure, shortened: as §1
# lambsquarters = assay: Test Example 4: herbicidal effect by soil treatment (Table 19, symbol O); type: in vivo, lambsquarters (Chenopodium album); settings: amount of applied herbicide 320 g/ha
# Procedure, shortened: as §1
# chickweed [2] = assay: Test Example 4: herbicidal effect by soil treatment (Table 19, symbol P); type: in vivo, common chickweed (Stellaria media); settings: amount of applied herbicide 320 g/ha
# Procedure, shortened: as §1
# oval-leafed pondweed [3] = assay: Test Example 1: herbicidal activity, application before weed generation under submerged conditions (Table 16, symbol C); type: in vivo, oval-leafed pondweed (Monochoria vaginalis); settings: amount of applied herbicide 320 g/ha
# Procedure, shortened: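 Submerged Wagner pots (alluvial soil, 4 cm water) sown with weed seeds and planted with 2.5-leaf rice seedlings; emulsifiable concentrate diluted in water applied to water surface on sowing day. Held in greenhouse at 25-30 °C; injury scored 0-5 by herbicidal rate after three weeks.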
# late watergrass = assay: Test Example 2: herbicidal activity, application during weed generation under submerged conditions (Table 17, symbol A); type: in vivo, late watergrass (Echinochloa oryzicola); settings: AAH 320 g/ha; application during weed generation, submerged conditions
# Procedure, shortened: (§2)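 In this pot test, flooded alluvial soil (water depth 4 cm) holds all three species sown as a mixture. Once seedlings have one to two leaves, the compound's emulsion, thinned with water to the intended dose, is poured on the water; grading follows after three weeks on the earlier criteria.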
# persian speedwell = assay: Test Example 4: herbicidal effect by soil treatment (Table 19, symbol R); type: in vivo, Persian speedwell (Veronica persica); settings: amount of applied herbicide 320 g/ha
# Procedure, shortened: as §1
# chickweed [4] = assay: Test Example 5: herbicidal effect by foliage application, plastic box (Table 20, symbol P); type: in vivo, common chickweed (Stellaria media); settings: 320 g/ha; for P: chickweed, herbicidal effect grade: foliage application, three weeks after application; for herbicidal effect on P: chickweed (evaluation grade 0-5): foliage application after 14-day growth, evaluated three weeks after application
# Procedure, shortened: (§3)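 Plants sown in sterilized diluvial soil and grown 14 days in a greenhouse at 25° C to 30° C, then sprayed on the foliage with the compound's emulsion diluted in water to a predetermined herbicide amount. Injury to weeds and crops scored three weeks after application on a visual rating scale.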
# wild oat [5] = assay: Test Example 5: herbicidal effect by foliage application, plastic box (Table 20, symbol I); type: in vivo, wild oat (Avena fatua); settings: 320 g/ha; for I: wild oat, herbicidal effect grade: foliage application, three weeks after application; for herbicidal effect on I: wild oat (evaluation grade 0-5): foliage application after 14-day growth, evaluated three weeks after application
# Procedure, shortened: as §3
# Japanese bulrush = assay: Test Example 2: herbicidal activity, application during weed generation under submerged conditions (Table 17, symbol B); type: in vivo, Japanese bulrush (Schoenoplectus juncoides); settings: AAH 320 g/ha; application during weed generation, submerged conditions
# Procedure, shortened: as §2
# southern crabgrass = assay: Test Example 5: herbicidal effect by foliage application, plastic box (Table 20, symbol F); type: in vivo, southern crabgrass (Digitaria ciliaris); settings: 320 g/ha; for F: southern crabgrass, herbicidal effect grade: foliage application, three weeks after application; for herbicidal effect on F: southern crabgrass (evaluation grade 0-5): foliage application after 14-day growth, evaluated three weeks after application
# Procedure, shortened: as §3
# barnyard grass = assay: Test Example 4: herbicidal effect by soil treatment (Table 19, symbol H); type: in vivo, barnyard grass (Echinochloa crus-galli); settings: amount of applied herbicide 320 g/ha
# Procedure, shortened: as §1
# oval-leafed pondweed [6] = assay: Test Example 2: herbicidal activity, application during weed generation under submerged conditions (Table 17, symbol C); type: in vivo, oval-leafed pondweed (Monochoria vaginalis); settings: AAH 320 g/ha; application during weed generation, submerged conditions
# Procedure, shortened: as §2
# Italian ryegrass = assay: Test Example 4: herbicidal effect by soil treatment (Table 19, symbol K); type: in vivo, Italian ryegrass (Lolium multiflorum); settings: amount of applied herbicide 320 g/ha
# Procedure, shortened: as §1
# windgrass = assay: Test Example 4: herbicidal effect by soil treatment (Table 19, symbol L); type: in vivo, windgrass (Apera spica-venti); settings: amount of applied herbicide 320 g/ha
# Procedure, shortened: as §1
Compound,"M: velvetleaf, herbicidal effect grade (velvetleaf)","I: wild oat, herbicidal effect grade (wild oat [1])","O: lambsquarters, herbicidal effect grade (lambsquarters)","P: chickweed, herbicidal effect grade (chickweed [2])","Herbicidal effect, C: oval-leafed pondweed (oval-leafed pondweed [3])","herbicidal effect rating, A: late watergrass (late watergrass)","R: persian speedwell, herbicidal effect grade (persian speedwell)","herbicidal effect rating, B: Japanese bulrush (Japanese bulrush)","herbicidal effect rating, C: oval-leafed pondweed (oval-leafed pondweed [6])","Herbicidal effect by soil treatment, M: velvetleaf (velvetleaf)","Herbicidal effect by soil treatment, I: wild oat (wild oat [1])","Herbicidal effect by soil treatment, O: lambsquarters (lambsquarters)","Herbicidal effect by soil treatment, P: chickweed (chickweed [2])","Herbicidal effect by soil treatment, R: persian speedwell (persian speedwell)",herbicidal effect on P: chickweed (evaluation grade 0-5) (chickweed [4]),herbicidal effect on I: wild oat (evaluation grade 0-5) (wild oat [5]),herbicidal effect on F: southern crabgrass (evaluation grade 0-5) (southern crabgrass),"Herbicidal effect by soil treatment, H: barnyard grass (barnyard grass)","Herbicidal effect by soil treatment, K: Italian ryegrass (Italian ryegrass)","Herbicidal effect by soil treatment, L: windgrass (windgrass)",also measured
CCOc1ccccc1-c1sc2cc(OCCOC)ccc2c1-c1c(O)c(C)nn(C)c1=O [3-123],2 (Herbicidal rate of 20% or more and less than 40%),4 (Herbicidal rate of 70% or more and less than 90%),5 (Herbicidal rate of 90% or more (almost completely withered)),5 (Herbicidal rate of 90% or more (almost completely withered)),5 (Herbicidal rate of 90% or more (almost completely withered)),3 (Herbicidal rate of 40% or more and less than 70%),5 (Herbicidal rate of 90% or more (almost completely withered)),3 (Herbicidal rate of 40% or more and less than 70%),2 (Herbicidal rate of 20% or more and less than 40%),,,,,,,,,,,,"P: chickweed, herbicidal effect grade (chickweed [4]): 5 (Herbicidal rate of 90% or more (almost completely withered)); I: wild oat, herbicidal effect grade (wild oat [5]): 5 (Herbicidal rate of 90% or more (almost completely withered)); F: southern crabgrass, herbicidal effect grade (southern crabgrass): 5 (Herbicidal rate of 90% or more (almost completely withered)); H: barnyard grass, herbicidal effect grade (barnyard grass): 5 (Herbicidal rate of 90% or more (almost completely withered)); K: Italian ryegrass, herbicidal effect grade (Italian ryegrass): 5 (Herbicidal rate of 90% or more (almost completely withered)); L: windgrass, herbicidal effect grade (windgrass): 5 (Herbicidal rate of 90% or more (almost completely withered))"
COc1ccccc1-c1sc2cc(OCCSC)ccc2c1-c1c(O)c(C)nn(C)c1=O [3-125],4 (Herbicidal rate of 70% or more and less than 90%),0 (Herbicidal rate of 5% or less (almost no effect)),5 (Herbicidal rate of 90% or more (almost completely withered)),5 (Herbicidal rate of 90% or more (almost completely withered)),1 (Herbicidal rate of 5% or more and less than 20%),0 (Herbicidal rate of 5% or less (almost no effect)),5 (Herbicidal rate of 90% or more (almost completely withered)),3 (Herbicidal rate of 40% or more and less than 70%),3 (Herbicidal rate of 40% or more and less than 70%),,,,,,,,,,,,"P: chickweed, herbicidal effect grade (chickweed [4]): 5 (Herbicidal rate of 90% or more (almost completely withered)); I: wild oat, herbicidal effect grade (wild oat [5]): 5 (Herbicidal rate of 90% or more (almost completely withered)); F: southern crabgrass, herbicidal effect grade (southern crabgrass): 5 (Herbicidal rate of 90% or more (almost completely withered)); H: barnyard grass, herbicidal effect grade (barnyard grass): 0 (Herbicidal rate of 5% or less (almost no effect)); K: Italian ryegrass, herbicidal effect grade (Italian ryegrass): 5 (Herbicidal rate of 90% or more (almost completely withered)); L: windgrass, herbicidal effect grade (windgrass): 3 (Herbicidal rate of 40% or more and less than 70%)"
C=C(C)C(=O)Oc1c(C)nn(C)c(=O)c1-c1c(-c2ccccc2OC)sc2cc(OC)ccc12 [3-155],,,,,5 (Herbicidal rate of 90% or more (almost completely withered)),5 (Herbicidal rate of 90% or more (almost completely withered)),,5 (Herbicidal rate of 90% or more (almost completely withered)),5 (Herbicidal rate of 90% or more (almost completely withered)),0 (Herbicidal rate of 5% or less (almost no effect)),0 (Herbicidal rate of 5% or less (almost no effect)),0 (Herbicidal rate of 5% or less (almost no effect)),1 (Herbicidal rate of 5% or more and less than 20%),0 (Herbicidal rate of 5% or less (almost no effect)),5 (Herbicidal rate of 90% or more (almost completely withered)),3 (Herbicidal rate of 40% or more and less than 70%),5 (Herbicidal rate of 90% or more (almost completely withered)),2 (Herbicidal rate of 20% or more and less than 40%),3 (Herbicidal rate of 40% or more and less than 70%),4 (Herbicidal rate of 70% or more and less than 90%),
COc1ccc2c(-c3c(OC(=O)c4ccccc4OC)c(C)nn(C)c3=O)c(-c3ccccc3OC)sc2c1 [3-158],,,,,5 (Herbicidal rate of 90% or more (almost completely withered)),4 (Herbicidal rate of 70% or more and less than 90%),,3 (Herbicidal rate of 40% or more and less than 70%),5 (Herbicidal rate of 90% or more (almost completely withered)),0 (Herbicidal rate of 5% or less (almost no effect)),0 (Herbicidal rate of 5% or less (almost no effect)),0 (Herbicidal rate of 5% or less (almost no effect)),1 (Herbicidal rate of 5% or more and less than 20%),0 (Herbicidal rate of 5% or less (almost no effect)),5 (Herbicidal rate of 90% or more (almost completely withered)),3 (Herbicidal rate of 40% or more and less than 70%),5 (Herbicidal rate of 90% or more (almost completely withered)),0 (Herbicidal rate of 5% or less (almost no effect)),0 (Herbicidal rate of 5% or less (almost no effect)),0 (Herbicidal rate of 5% or less (almost no effect)),
CCCC(=O)Oc1c(C)nn(C)c(=O)c1-c1c(-c2ccc(OC)cc2)sc2c(F)cccc12 [4-006],,,,,0 (Herbicidal rate of 5% or less (almost no effect)),3 (Herbicidal rate of 40% or more and less than 70%),,3 (Herbicidal rate of 40% or more and less than 70%),2 (Herbicidal rate of 20% or more and less than 40%),1 (Herbicidal rate of 5% or more and less than 20%),0 (Herbicidal rate of 5% or less (almost no effect)),4 (Herbicidal rate of 70% or more and less than 90%),0 (Herbicidal rate of 5% or less (almost no effect)),0 (Herbicidal rate of 5% or less (almost no effect)),5 (Herbicidal rate of 90% or more (almost completely withered)),0 (Herbicidal rate of 5% or less (almost no effect)),1 (Herbicidal rate of 5% or more and less than 20%),4 (Herbicidal rate of 70% or more and less than 90%),0 (Herbicidal rate of 5% or less (almost no effect)),0 (Herbicidal rate of 5% or less (almost no effect)),
